Here are results for 26 compounds from patent US12071425B2 (Genentech, Inc., priority 2018, dated 2024).

Counter-ions that a name gives are not always drawn.

Sequence of kinase domain of IRE1 alpha (His-tagged kinase dead construct KR, AA G547-L977, D688N) (O75460 547-977 D688N): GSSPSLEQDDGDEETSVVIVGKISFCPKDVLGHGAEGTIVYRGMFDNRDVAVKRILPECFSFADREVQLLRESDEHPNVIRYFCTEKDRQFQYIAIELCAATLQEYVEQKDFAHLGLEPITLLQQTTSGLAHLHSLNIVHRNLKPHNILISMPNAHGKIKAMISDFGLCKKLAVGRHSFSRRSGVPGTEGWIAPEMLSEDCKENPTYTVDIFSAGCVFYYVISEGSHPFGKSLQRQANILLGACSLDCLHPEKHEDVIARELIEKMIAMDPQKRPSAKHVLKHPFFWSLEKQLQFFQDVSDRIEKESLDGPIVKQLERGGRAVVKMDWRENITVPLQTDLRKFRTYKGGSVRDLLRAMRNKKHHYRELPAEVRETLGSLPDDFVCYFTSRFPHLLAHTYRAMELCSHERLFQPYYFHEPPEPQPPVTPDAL

The target of the experiment is kinase domain of IRE1 alpha (His-tagged kinase dead construct KR, AA G547-L977, D688N) (Homo sapiens (Human), UniProt O75460, D688N). Briefly: IRE1α TR-FRET competition binding assay. Particulars: competition with Kinase Tracer 236, 0.1 μM; one hour at room temperature. Put shortly:
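Sf9-expressed kinase-dead KR construct (0.006 μM final) pre-incubated 1 h at 4° C with Eu anti-His antibody (0.002 μM) in HEPES pH 7.5/MgCl2/Brij/DTT buffer; Kinase Tracer 236 (ATP-competitive probe, 0.1 μM final) added with compound. 1 h at room temperature; tracer displacement read by TR-FRET (665/615 nm).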
In general terms: TR-FRET usually uses a lanthanide donor and a delayed reading to cut background.
On to `N#Cc1ccccc1CS(=O)(=O)Nc1ccc(Oc2ncccc2-c2ccnc(N[C@H]3CCCNC3)n2)c(F)c1F` [Compound 187, (S)-1-(2-cyanophenyl)-N-(2,3-difluoro-4-((3-(2-(piperidin-3-ylamino)pyrimidin-4-yl)pyridin-2-yl)oxy)phenyl)methanesulfonamide], for which the IC50 (as a rule, the concentration at which inhibition is half-maximal) was 2.9 nM.
As for `CC(F)(F)CCS(=O)(=O)Nc1ccc(Oc2ncccc2-c2ccnc(N[C@H]3CCCNC3)n2)c(F)c1F` [Compound 149, (S)-N-(2,3-difluoro-4-((3-(2-(piperidin-3-ylamino)pyrimidin-4-yl)pyridin-2-yl)oxy)phenyl)-3,3-difluorobutane-1-sulfonamide hydrochloride], the figure is 8.7 nM; as for `Cc1c(NC(=O)CC2CCCCC2)ccc(Oc2ncccc2-c2ccnc(N[C@H]3CCCNC3)n2)c1C` [Compound 129, (S)-2-Cyclohexyl-N-(2,3-dimethyl-4-((3-(2-(piperidin-3-ylamino)pyrimidin-4-yl)pyridin-2-yl)oxy)phenyl)acetamide], 230 nM; as for `CN(C)C1CCC(Nc2nccc(-c3cccnc3Oc3cc(F)c(NS(=O)(=O)Cc4ccccc4)c(F)c3F)n2)CC1F` (single isomer, unassigned) [Compound 306, N-(4-((3-(2-((4-(Dimethylamino)-3-fluorocyclohexyl)amino)pyrimidin-4-yl)pyridin-2-yl)oxy)-2,3,6-trifluorophenyl)-1-phenylmethanesulfonamide], 43 nM.
As for `N#Cc1cccc(S(=O)(=O)Nc2ccc(Oc3ncccc3-c3ccnc(N[C@H]4CCCNC4)n3)c(F)c2F)c1` [Compound 220, (S)-3-cyano-N-(2,3-difluoro-4-((3-(2-(piperidin-3-ylamino)pyrimidin-4-yl)pyridin-2-yl)oxy)phenyl)benzenesulfonamide], the figure is 19 nM.
The result for `O=S(=O)(Cc1ccccc1)Nc1c(F)cc(Oc2ncccc2-c2ccnc(NC3CC4CCCN(C4)C3)n2)c(F)c1F` (single isomer, unassigned) [Compound 287, N-(4-((3-(2-((1-azabicyclo[3.3.1]nonan-3-yl)amino)pyrimidin-4-yl)pyridin-2-yl)oxy)-2,3,6-trifluorophenyl)-1-phenylmethanesulfonamide hydrochloride] reads 1.5 nM.
Compound `COC1CNCC(Nc2nccc(-c3cccnc3Oc3cc(F)c(NS(=O)(=O)Cc4ccccc4)c(F)c3F)n2)C1` (single isomer, unassigned) [Compound 317, 1-Phenyl-N-(2,3,6-trifluoro-4-((3-(2-((5-methoxypiperidin-3-yl)amino)pyrimidin-4-yl)pyridin-2-yl)oxy)phenyl)methanesulfonamide] returned an IC50 of 140 nM.
The result for `O=S(=O)(Nc1ccc(F)c(Oc2ncccc2-c2ccnc(N[C@H]3CCCNC3)n2)c1)c1ccccc1Cl` [Compound 128, (S)-2-Chloro-N-(4-fluoro-3-((3-(2-(piperidin-3-ylamino)pyrimidin-4-yl)pyridin-2-yl)oxy)phenyl)benzenesulfonamide] reads 11 nM; that for `CC(F)C1CNCC(Nc2nccc(-c3cccnc3Oc3cc(F)c(NS(=O)(=O)Cc4ccccc4)c(F)c3F)n2)C1` (single isomer, unassigned) [Compound 343, 1-Phenyl-N-(2,3,6-trifluoro-4-((3-(2-((5-(1-fluoroethyl)piperidin-3-yl)amino)pyrimidin-4-yl)pyridin-2-yl)oxy)phenyl)methanesulfonamide hydrochloride], 0.78 nM; that for `C[C@@]1(F)CNC[C@@H](Nc2nccc(-c3cccnc3Oc3cc(F)c(NS(=O)(=O)CC4CCC4)c(F)c3F)n2)C1` [Compound 202, 1-cyclobutyl-N-(2,3,6-trifluoro-4-((3-(2-(((3S,5S)-5-fluoro-5-methylpiperidin-3-yl)amino)pyrimidin-4-yl)pyridin-2-yl)oxy)phenyl)methanesulfonamide], 4.4 nM.
Consider `Cc1cc(NS(=O)(=O)Cc2ccccc2)c(F)c(F)c1Oc1ncccc1-c1ccnc(N[C@@H]2CNC[C@@H](F)C2)n1` [Compound 178, N-(2,3-difluoro-4-((3-(2-(((3S,5S)-5-fluoro-3-piperidyl)amino)pyrimidin-4-yl)-2-pyridyl)oxy)-5-methyl-phenyl)-1-phenyl-methanesulfonamide], for which the IC50 was found to be 3.5 nM.
The result for `O=S(=O)(Cc1ccccc1)Nc1ccc(Oc2ncccc2-c2ccnc(N[C@@H]3CNC[C@@H](F)C3)n2)c(F)c1F` [Compound 112, N-(2,3-difluoro-4-((3-(2-(((3S,5S)-5-fluoropiperidin-3-yl)amino)pyrimidin-4-yl)pyridin-2-yl)oxy)phenyl)-1-phenylmethanesulfonamide] reads 4.6 nM; that for `O=S(=O)(Cc1ccncc1)Nc1ccc(Oc2ncccc2-c2ccnc(N[C@H]3CCCNC3)n2)c(F)c1F` [Compound 234, (S)-N-(2,3-difluoro-4-(3-(2-(piperidin-3-ylamino)pyrimidin-4-yl)pyridin-2-yloxy)phenyl)-1-(pyridin-4-yl)methanesulfonamide], 7 nM; that for `O=S(=O)(Cc1cccc(Cl)c1)Nc1ccc(Oc2ncccc2-c2ccnc(N[C@H]3CCCNC3)n2)c(F)c1F` [Compound 225, (S)-1-(3-chlorophenyl)-N-(2,3-difluoro-4-((3-(2-(piperidin-3-ylamino)pyrimidin-4-yl)pyridin-2-yl)oxy)phenyl)methanesulfonamide], 6.1 nM.
The result for `N#Cc1cccc(CS(=O)(=O)Nc2ccc(Oc3ncccc3-c3ccnc(N[C@H]4CCCNC4)n3)c(F)c2F)c1` [Compound 229, (S)-1-(3-cyanophenyl)-N-(2,3-difluoro-4-((3-(2-(piperidin-3-ylamino)pyrimidin-4-yl)pyridin-2-yl)oxy)phenyl)methanesulfonamide] reads 6.4 nM.
As for `CC(F)(F)CCS(=O)(=O)Nc1c(F)cc(Oc2ncccc2-c2ccnc(N[C@@H]3CNC[C@@H](F)C3)n2)c(F)c1F` [Compound 253, 3,3-Difluoro-N-(2,3,6-trifluoro-4-((3-(2-(((3S,5S)-5-fluoropiperidin-3-yl)amino)pyrimidin-4-yl)pyridin-2-yl)oxy)phenyl)butane-1-sulfonamide], the figure is 1.9 nM.
For the compound `Cc1c(Oc2ncccc2-c2ccnc(N[C@H]3CCCNC3)n2)cc(F)c(NS(=O)(=O)Cc2ccccc2)c1C` [Compound 175, (S)-N-(6-fluoro-2,3-dimethyl-4-((3-(2-(piperidin-3-ylamino)pyrimidin-4-yl)pyridin-2-yl)oxy)phenyl)-1-phenylmethanesulfonamide], the IC50 came to 5.2 nM.
The compound `O=S(=O)(Cc1ccccc1)Nc1cccc(Oc2ncccc2-c2ccnc(N[C@H]3CCCNC3)n2)c1F` [Compound 142, (S)—N-(2-Fluoro-3-((3-(2-(piperidin-3-ylamino)pyrimidin-4-yl)pyridin-2-yl)oxy)phenyl)-1-phenylmethanesulfonamide hydrochloride] displayed an IC50 of 16 nM.
The result for `Cc1cc(NS(=O)(=O)c2ccccc2Cl)cc(F)c1Oc1ncccc1-c1ccnc(N[C@H]2CCCNC2)n1` [Compound 114, (S)-2-chloro-N-(3-fluoro-5-methyl-4-((3-(2-(piperidin-3-ylamino)pyrimidin-4-yl)pyridin-2-yl)oxy)phenyl)benzenesulfonamide hydrochloride] reads 7.3 nM.
As for `O=S(=O)(Cc1ccc(F)cc1)Nc1ccc(Oc2ncccc2-c2ccnc(N[C@H]3CCCNC3)n2)c(F)c1F` [Compound 235, (S)-N-(2,3-difluoro-4-(3-(2-(piperidin-3-ylamino)pyrimidin-4-yl)pyridin-2-yloxy)phenyl)-1-(4-fluorophenyl)methanesulfonamide], the figure is 4 nM; as for `C[C@H]1CNC[C@@H](Nc2nccc(-c3cccnc3Oc3cc(F)c(NS(=O)(=O)Cc4ccccc4)c(F)c3F)n2)C1` [Compound 165, 1-phenyl-N-(2,3,6-trifluoro-4-((3-(2-(((3S,5R)-5-methyl-3-piperidyl)amino)pyrimidin-4-yl)-2-pyridyl)oxy)phenyl)methanesulfonamide], 2.7 nM; as for `CCCS(=O)(=O)Nc1cc(C)c(Oc2ncccc2-c2ccnc(N[C@H]3CC[C@H](N)CC3)n2)c(F)c1` [Compound 118, N-(4-((3-(2-(((1r,4r)-4-aminocyclohexyl)amino)pyrimidin-4-yl)pyridin-2-yl)oxy)-3-fluoro-5-methylphenyl)propane-1-sulfonamide hydrochloride], 47 nM.
The result for `O=S(=O)(CC12CCC(CC1)CC2)Nc1c(F)cc(Oc2ncccc2-c2ccnc(N[C@@H]3CNC[C@@H](F)C3)n2)c(F)c1F` [Compound 377, 1-(Bicyclo[2.2.2]octan-1-yl)-N-(2,3,6-trifluoro-4-((3-(2-(((3S,5S)-5-fluoropiperidin-3-yl)amino)pyrimidin-4-yl)pyridin-2-yl)oxy)phenyl)methanesulfonamide] reads 0.8 nM; that for `Cc1c(F)c(NS(=O)(=O)Cc2ccc(C#N)cc2)c(F)c(F)c1Oc1ncccc1-c1ccnc(N[C@@H]2CNC[C@@H](F)C2)n1` [Compound 255, 1-(4-Cyanophenyl)-N-(2,3,6-trifluoro-4-((3-(2-(((3S,5S)-5-fluoropiperidin-3-yl)amino)pyrimidin-4-yl)pyridin-2-yl)oxy)-5-methylphenyl)methanesulfonamide], 230 nM.
On to `O=S(=O)(CC1CCC1)Nc1ccc(Oc2ncccc2-c2ccnc(N[C@H]3CCCNC3)n2)c(F)c1F` [Compound 173, (S)-1-cyclobutyl-N-(2,3-difluoro-4-((3-(2-(piperidin-3-ylamino)pyrimidin-4-yl)pyridin-2-yl)oxy)phenyl)methanesulfonamide], for which the IC50 was 8.3 nM.
In the case of `CC1(CF)CNCC(Nc2nccc(-c3cccnc3Oc3cc(F)c(NS(=O)(=O)Cc4ccccc4)c(F)c3F)n2)C1` (single isomer, unassigned) [Compound 295, 1-Phenyl-N-(2,3,6-trifluoro-4-((3-(2-((5-(fluoromethyl)-5-methylpiperidin-3-yl)amino)pyrimidin-4-yl)pyridin-2-yl)oxy)phenyl)methanesulfonamide], the IC50 was 41 nM.
